Experimental data: patent publication US20090191193A1, “Aryl Vinyl Sulfides, Sulfones, Sulfoxides and Sulfonamides, Derivatives Thereof and Therapeutic Uses Thereof” (TEMPLE UNIVERSITY-OF THE COMMONWEALTH SYSTEM OF HIGHER …, priority 2006, published 2009)

Assays:
[1] = system: K562 (chronic myelogenous leukaemia); experiment: Effect on tumor cell lines, viable cell count by trypan blue exclusion (Latham et al.): K562; assay type: cell-based; settings: Homo sapiens, K562, 96 h, K562 chronic myelogenous leukaemia cells, viable cell count 96 hours after treatment
DU145 (prostate cancer) = experiment: Effect on tumor cell lines, viable cell count by trypan blue exclusion (Latham et al.): DU145; assay type: cell-based; settings: Homo sapiens, DU-145, 96 h, DU145 prostate cancer cells, viable cell count 96 hours after treatment

| SMILES | melting point | IC50 [1] | IC50 (DU145 (prostate cancer)) |
| --- | --- | --- | --- |
| COc1ccc(/C=C(\C#N)S(=O)(=O)Cc2ccc(Cl)cc2)cc1 [Example 50] | 143 to 152 °C | > 100 µM | > 100 µM |
| N#C/C(=C\c1ccccc1Cl)S(=O)(=O)Cc1ccc(F)cc1 [Example 145] | 159 to 163 °C | > 100 µM | > 100 µM |
| N#C/C(=C\c1ccoc1)S(=O)(=O)Cc1ccc(Cl)cc1Cl [Example 104] | 116 to 122 °C | 50 to 100 µM | > 100 µM |
| COc1ccc(/C=C(\C#N)S(=O)(=O)Nc2ccc(C)cc2C)c(F)c1 [Example 261] | 142 to 144 °C | 50 to 100 µM | > 100 µM |
| Cc1ccc(NS(=O)(=O)/C(C#N)=C/c2ccc(O)cc2)c(C)c1 [Example 271] | 152 to 154 °C | > 100 µM | > 100 µM |
| Cc1ccoc1/C=C(\C#N)S(=O)(=O)Cc1ccc(Cl)cc1Cl [Example 103] | 184 to 189 °C | 50 to 100 µM | > 100 µM |
| Cc1ccc(/C=C(\C#N)S(=O)(=O)Nc2ccccc2Oc2ccccc2)s1 [Example 198] | 141 to 143 °C | 50 to 100 µM | 50 to 100 µM |
| N#C/C(=C\c1ccc(Cl)c(Cl)c1Cl)S(=O)(=O)Cc1ccc(Cl)cc1 [Example 62] | 145 to 155 °C | 50 to 100 µM | > 100 µM |
| Cc1cc(/C=C(\C#N)S(=O)(=O)Cc2ccc(Cl)cc2)ccc1F [Example 42] | 140 to 145 °C | 50 to 100 µM | 50 to 100 µM |
| N#C/C(=C\c1ccc(O)c([N+](=O)[O-])c1)S(=O)(=O)Nc1ccccc1Oc1ccccc1 [Example 209] | 83 to 85 °C | 50 to 100 µM | > 100 µM |
| Cc1ccc(/C=C(\C#N)S(=O)(=O)Cc2ccc(Cl)cc2)s1 [Example 123] | 148 to 152 °C | > 100 µM | > 100 µM |
| N#C/C(=C\c1c[nH]c2ccc(Br)cc12)S(=O)(=O)Nc1ccc(F)cc1 [Example 250] | 167 to 169 °C | 50 to 100 µM | > 100 µM |
| COc1ccc(NS(=O)(=O)/C(C#N)=C/c2ccccc2O)cc1 [Example 292] | 197 to 198 °C | 50 to 100 µM | > 100 µM |
| N#C/C(=C\c1ccc(O)cc1O)S(=O)(=O)Cc1ccc(Cl)cc1 [Example 60] | 250 to 255 °C | > 100 µM | > 100 µM |
| N#C/C(=C\c1ccc(F)cc1Cl)S(=O)(=O)Cc1ccc(Cl)cc1 [Example 41] | 124 to 126 °C | 50 to 100 µM | 50 to 100 µM |
| Cc1ccoc1/C=C(\C#N)S(=O)(=O)Cc1cccc(Br)c1 [Example 114] | 122 to 126 °C | > 100 µM | > 100 µM |
| N#C/C(=C\c1cccc(O)c1)S(=O)(=O)Cc1cccc(Br)c1 [Example 117] | 160 to 165 °C | > 100 µM | > 100 µM |
| COc1ccc(NS(=O)(=O)/C(C#N)=C/c2ccc(O)cc2)cc1 [Example 289] | 181 to 182 °C | 50 to 100 µM | > 100 µM |
| COc1ccc(NS(=O)(=O)/C(C#N)=C/c2ccc(N(C)C)cc2)cc1 [Example 280] | 166 to 169 °C | 50 to 100 µM | > 100 µM |
| N#C/C(=C\c1ccoc1)S(=O)(=O)Cc1ccc(Cl)cc1 [Example 122] | 150 to 154 °C | > 100 µM | > 100 µM |
| COc1ccc(/C=C(\C#N)S(=O)(=O)Nc2ccc(Cl)cc2)cc1 [Example 195] | 94 to 96 °C | 50 to 100 µM | 50 to 100 µM |
| COc1cc(/C=C(\C#N)S(=O)(=O)Nc2ccc(F)cc2)cc(OC)c1OC [Example 249] | 179 to 182 °C | > 100 µM | > 100 µM |
| CN(C)c1ccc(/C=C(\C#N)S(=O)(=O)Nc2ccccc2Oc2ccccc2)cc1 [Example 206] | 158 to 160 °C | > 100 µM | > 100 µM |
| N#C/C(=C\c1ccc(Cl)cc1)S(=O)(=O)Nc1ccccc1Oc1ccccc1 [Example 207] | 136 to 138 °C | 50 to 100 µM | 50 to 100 µM |

More lines, now with the values ahead:

| melting point | IC50 [1] | IC50 (DU145 (prostate cancer)) | SMILES |
| --- | --- | --- | --- |
| 166 to 168 °C | 10 to 25 µM | 50 to 100 µM | Cc1ccc(NS(=O)(=O)/C(C#N)=C/c2sccc2C)c(C)c1 [Example 257] |
| 154 to 156 °C | 25 µM | 50 µM | N#C/C(=C\c1c(F)c(F)c(F)c(F)c1F)S(=O)(=O)Cc1ccc(Cl)cc1 [Example 21] |
| 95 to 96 °C | 25 to 50 µM | 50 to 100 µM | COc1ccc(NS(=O)(=O)/C(C#N)=C/c2ccc(Cl)cc2)cc1 [Example 290] |
| 127 to 129 °C | 10 to 25 µM | 25 to 50 µM | N#C/C(=C\c1ccccc1OCc1ccccc1)S(=O)(=O)Nc1ccc(F)cc1 [Example 230] |
| 122 to 132 °C | 10 to 25 µM | 25 to 50 µM | Cc1ccc(/C=C(\C#N)S(=O)(=O)Cc2ccc(F)cc2)cc1C [Example 88] |
| 192 to 194 °C | 25 to 50 µM | 50 to 100 µM | N#C/C(=C\c1ccccc1Cl)S(=O)(=O)Nc1ccc(Br)cc1 [Example 227] |
| 110 to 112 °C | 1 µM | 25 µM | COc1ccc(CS(=O)(=O)/C(C#N)=C/c2c(F)c(F)c(F)c(F)c2F)cc1 [Example 11] |
| 184 to 186 °C | 10 to 25 µM | 10 to 25 µM | N#C/C(=C\c1cc(Cl)cc(Cl)c1Cl)S(=O)(=O)Nc1ccc(F)cc1 [Example 243] |
| 220 to 230 °C | 25 to 50 µM | 50 to 100 µM | N#C/C(=C\c1ccc(O)cc1O)S(=O)(=O)Cc1ccc(Cl)cc1Cl [Example 92] |
| 145 to 168 °C | 25 to 50 µM | 50 to 100 µM | N#C/C(=C\c1ccc(Cl)cc1)S(=O)(=O)Cc1ccc(Cl)cc1 [Example 61] |
| 182 to 184 °C | 10 to 25 µM | 25 to 50 µM | N#C/C(=C\c1ccccc1Cl)S(=O)(=O)Nc1ccc(F)cc1 [Example 235] |
| 168 to 171 °C | 25 to 50 µM | 25 to 50 µM | Cc1ccc(NS(=O)(=O)/C(C#N)=C/c2ccc(N(C)C)cc2)c(C)c1 [Example 255] |
| 243 to 253 °C | 1 to 10 µM | 1 to 10 µM | N#C/C(=C\c1ccc([N+](=O)[O-])cc1F)S(=O)(=O)Cc1ccc(Cl)cc1 [Example 48] |
| 143 to 147 °C | 25 to 50 µM | > 100 µM | N#C/C(=C\c1ccccc1Cl)S(=O)(=O)Cc1ccc(Br)cc1 [Example 144] |
| 149 to 153 °C | 25 to 50 µM | 50 to 100 µM | COc1ccc(/C=C(\C#N)S(=O)(=O)Cc2ccc(Cl)cc2Cl)cc1OC [Example 110] |
| 158 to 160 °C | 10 µM | 75 µM | COc1cc(OC)c(/C=C(\C#N)S(=O)(=O)Cc2ccc(Br)cc2)c(OC)c1 [Example 20] |
| 169 to 170 °C | 25 to 50 µM | 25 to 50 µM | N#C/C(=C\c1ccccc1O)S(=O)(=O)Nc1ccc(Br)cc1 [Example 228] |
| 208 to 210 °C | 25 to 50 µM | 50 to 100 µM | N#C/C(=C\c1c[nH]c2ccccc12)S(=O)(=O)Nc1ccc(Br)cc1 [Example 214] |
| 216 to 217 °C | 25 to 50 µM | 50 to 100 µM | N#C/C(=C\c1c[nH]c2ccccc12)S(=O)(=O)Nc1ccc(Cl)cc1 [Example 205] |
| 192 to 202 °C | 25 to 50 µM | 25 to 50 µM | CC(=O)Oc1ccc(/C=C(\C#N)S(=O)(=O)Cc2ccc(Cl)cc2)cc1 [Example 57] |
| 126 to 131 °C | 25 to 50 µM | 50 to 100 µM | CCOc1ccc(/C=C(\C#N)S(=O)(=O)Cc2ccc(Cl)cc2Cl)cc1OC [Example 94] |
| 106 to 107 °C | 50 µM | 50 µM | COc1ccc(NS(=O)(=O)/C(C#N)=C/c2ccc(Br)cc2)cc1 [Example 190] |
